pIC50: −log10 of the molar value. Counter-ions that a name gives are not always drawn.
Molecular target: T1, Human plasma kallikrein (Homo sapiens, UniProt P03952)
T1 construct: purchased Kordia (Leiden, Netherlands) batch HPKA 1303
Experiment: In vitro inhibition of plasma kallikrein (fluorogenic substrate DPro-Phe-Arg-(Rh110)-γGlu-OH)
Format: biochemical
Details: human plasma kallikrein nominally 12 pM, substrate 0.5 μM, 1 hour pre-incubation at room temperature, read after 1 hour (t=60 min)
Method: In Vitro Inhibition of Plasma Kallikrein
The fluorogenic substrate DPro-Phe-Arg-(Rh110)-γGlu-OH (where DPro is the amino acid d-proline, Rh110 is the fluorophore rhodamine 110 and γGlu is a […] linked to Rh110 via the gamma-carbonyl function; from Biosyntan, Berlin, Germany), being based on the chromogenic substrate described in Gallimore et al (Thromb Res 25, 293-298, 1982), was dissolved in DMSO at 5 mM and stored at −80° C. All other chemicals were of analytical grade.
Human plasma kallikrein was purchased from Kordia (Leiden, Netherlands, batch HPKA 1303) in lyophilized form.
The protein solution was reconstituted from the lyophilisate by addition of deinonized water. The resulting stock solution comprised the protein at a concentration of 0.17 mg/ml in 4 mM sodium acetate/HCl and 150 mM NaCl at pH 5.3. The stock solution was stored in aliquots at −80° C. Enzymatic reactions were conducted in ‘assay buffer’, comprising 50 mM Hepes/NaOH at pH 7.8, 150 mM NaCl, 1 mM EDTA and 0.05% (w/v) CHAPS.
Both, enzyme and substrate were diluted in assay buffer.
All protein and peptide containing solutions were handled in siliconized tubes (Life Systems Design, Merenschwand, Switzerland). The compound solutions as well as the enzyme and the substrate solutions were transferred to 384-well plates (black Cliniplate; cat. no. 95040020 Labsystems Oy, Finland) by means of a CyBi-Well 96-channel pipettor (CyBio AG, Jena, Germany). Plate measurements were conducted by the means of a Safire2 reader (TECAN, Maennedorf, Switzerland). The Safire2 is a monochomator-based instrument and wavelengths of 485 nm and 535 nm were taken for fluorescence excitation and emission acquisition, respectively. The bandwidths were set to 10 nm in both the excitation and the emission path. The fluorescence in each well was excited by three flashes per measurement.
For the determination of IC50 values, the assays were performed at room temperature in 384-well plates with a total assay volume of 25.25 μl per well.
The test compound was dissolved in 90% (v/v) DMSO/water. For the assays, […] of the 90% (v/v) DMSO/water solution or compound solution were added per well, followed by the addition of 12.5 μl protease solution (protease in assay buffer). The final assay concentration of the human plasma kallikrein was nominally 12 pM, the 11 compound concentrations in the dilution series were in the range form 1 nM to 100 μM. After 1 hour of pre-incubation at room temperature, the reactions were started by the addition of 12.5 μl substrate solution (in assay buffer, final assay concentration was 0.5 μM). After the addition of the substrate solution, the final DMSO concentration in the assay was 0.9% (v/v). The effect of the compound on the enzymatic activity was obtained from the linear part of the progress curves and determined after 1 hour (t=60 min). The IC50 value was calculated from the plot of percentage of inhibition vs. inhibitor concentration by a logistics fit according to the following equation:
where y is the %-inhibition at the inhibitor concentration, x. A1 is the lowest inhibition value, i.e. 0%, and A2 the maximum inhibition value, i.e. 100%. The exponent, p, is the Hill coefficient. The curve fitting was conducted with the non-linear regression routine of the analysis software Origin 7.5SR6 (Origin Lab Corporation).

T1 sequence (P03952 391-638 limits assumed): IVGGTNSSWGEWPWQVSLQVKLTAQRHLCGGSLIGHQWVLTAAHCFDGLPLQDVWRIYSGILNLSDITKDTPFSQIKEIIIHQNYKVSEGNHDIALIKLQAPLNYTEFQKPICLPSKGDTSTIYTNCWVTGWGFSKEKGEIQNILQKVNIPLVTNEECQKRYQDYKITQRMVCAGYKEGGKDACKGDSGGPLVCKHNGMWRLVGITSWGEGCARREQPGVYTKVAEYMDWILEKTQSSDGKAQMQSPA
T1 sequence (P03952 20-390 partner limits assumed): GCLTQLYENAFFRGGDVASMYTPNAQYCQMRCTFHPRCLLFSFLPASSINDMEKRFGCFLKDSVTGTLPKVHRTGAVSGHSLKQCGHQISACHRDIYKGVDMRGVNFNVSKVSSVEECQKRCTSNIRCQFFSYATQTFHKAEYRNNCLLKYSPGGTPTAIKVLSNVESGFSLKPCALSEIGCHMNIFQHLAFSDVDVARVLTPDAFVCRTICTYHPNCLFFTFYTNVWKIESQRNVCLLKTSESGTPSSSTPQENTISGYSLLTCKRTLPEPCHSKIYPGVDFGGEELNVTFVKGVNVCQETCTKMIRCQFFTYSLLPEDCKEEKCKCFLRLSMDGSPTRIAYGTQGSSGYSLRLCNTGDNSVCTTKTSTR

SMILES	pIC50
O=C(NCc1cccc(Cl)c1)c1cnn(Cc2ccc(Cn3cccn3)cc2)c1 [Example 7, 1-(4-((1H-pyrazol-1-yl)methyl)benzyl)-N-(3-chlorobenzyl)-1H-pyrazole-4-carboxamide]	5.88
C[C@@H](NC(=O)c1cnn(Cc2ccc(Cn3cccn3)cc2)c1)c1cccc(Cl)c1 [Example 8, (R)-1-(4-((1H-pyrazol-1-yl)methyl)benzyl)-N-(1-(3-chlorophenyl)ethyl)-1H-pyrazole-4-carboxamide]	5.79
N=C(N)c1ccc(CNC(=O)c2cnn(Cc3ccc(Cn4cccn4)cc3)c2)cc1 [Example 10, 1-(4-((1H-pyrazol-1-yl)methyl)benzyl)-N-(4-carbamimidoylbenzyl)-1H-pyrazole-4-carboxamide hydrochloride]	9.06
COc1ccc(Cn2cc(C(=O)NCc3n[nH]c4ccc(Cl)cc34)cn2)cc1 [Example 11, N-((5-chloro-1H-indazol-3-yl)methyl)-1-(4-methoxybenzyl)-1H-pyrazole-4-carboxamide]	6.45
O=C(NCc1n[nH]c2ccc(Cl)cc12)c1cnn(Cc2ccc(Cn3ccccc3=O)cc2)c1 [Example 15, N-((5-chloro-1H-indazol-3-yl)methyl)-1-(4-((2-oxopyridin-1(2H)-yl)methyl)benzyl)-1H-pyrazole-4-carboxamide]	9.97
O=C(NCc1c[nH]c2ccc(Cl)cc12)c1cnn(Cc2ccc(Cn3ccccc3=O)cc2)c1 [Example 16, N-((5-chloro-1H-indol-3-yl)methyl)-1-(4-((2-oxopyridin-1(2H)-yl)methyl)benzyl)-1H-pyrazole-4-carboxamide]	9.48
O=C(NCc1n[nH]c2ccc(Cl)cc12)c1cnn(Cc2ccc(Cn3cccn3)cc2)c1 [Example 17, 1-(4-((1H-pyrazol-1-yl)methyl)benzyl)-N-((5-chloro-1H-indazol-3-yl)methyl)-1H-pyrazole-4-carboxamide]	9.26
O=C(NCc1c[nH]c2ccc(Cl)cc12)c1cnn(Cc2ccc(Cn3cccn3)cc2)c1 [Example 18, 1-(4-((1H-pyrazol-1-yl)methyl)benzyl)-N-((5-chloro-1H-indol-3-yl)methyl)-1H-pyrazole-4-carboxamide]	8.36
O=C(NCc1n[nH]c2ccc(Cl)cc12)c1cnn(Cc2ccc(CN3CCOC3=O)cc2)c1 [Example 19, N-((5-chloro-1H-indazol-3-yl)methyl)-1-(4-((2-oxooxazolidin-3-yl)methyl)benzyl)-1H-pyrazole-4-carboxamide]	8.04
O=C(NCc1n[nH]c2ccc(Cl)cc12)c1cnn(Cc2ccc(S(=O)(=O)n3cccc3)cc2)c1 [Example 21, 1-(4-((1H-pyrrol-1-yl)sulfonyl)benzyl)-N-((5-chloro-1H-indazol-3-yl)methyl)-1H-pyrazole-4-carboxamide]	7.33
O=C(NCc1c[nH]c2ccc(Cl)cc12)c1cnn(Cc2ccc(CN3CCOC3=O)cc2)c1 [Example 22, N-((5-chloro-1H-indol-3-yl)methyl)-1-(4-((2-oxooxazolidin-3-yl)methyl)benzyl)-1H-pyrazole-4-carboxamide]	7.22
O=C(NCc1c[nH]c2ccc(Cl)cc12)c1cnn(Cc2ccc(S(=O)(=O)n3cccc3)cc2)c1 [Example 23, 1-(4-((1H-pyrrol-1-yl)sulfonyl)benzyl)-N-((5-chloro-1H-indol-3-yl)methyl)-1H-pyrazole-4-carboxamide]	6.87
COc1cc(Cn2cc(C(=O)NCc3n[nH]c4ccc(Cl)cc34)cn2)cc(OC)c1 [Example 25, N-((5-chloro-1H-indazol-3-yl)methyl)-1-(3,5-dimethoxybenzyl)-1H-pyrazole-4-carboxamide]	6.51
COc1cccc(Cn2cc(C(=O)NCc3n[nH]c4ccc(Cl)cc34)cn2)c1 [Example 26, N-((5-chloro-1H-indazol-3-yl)methyl)-1-(3-methoxybenzyl)-1H-pyrazole-4-carboxamide]	6.37
O=C(NCc1cccc(Cl)c1F)c1cnn(Cc2ccc(Cn3cccn3)cc2)c1 [Example 27, 1-(4-((1H-pyrazol-1-yl)methyl)benzyl)-N-(3-chloro-2-fluorobenzyl)-1H-pyrazole-4-carboxamide]	6.07
C[C@@H](NC(=O)c1cnn(Cc2ccc(Cn3cccn3)cc2)c1)c1cccc(Cl)c1F [Example 28, (R)-1-(4-((1H-pyrazol-1-yl)methyl)benzyl)-N-(1-(3-chloro-2-fluorophenyl)ethyl)-1H-pyrazole-4-carboxamide]	4.57

Second part, the molecule after the results:

pIC50	SMILES
4.99	Cc1ccc2cc(Cn3cc(C(=O)NCc4c(C)ccnc4C)nn3)ccc2n1 [Example 1, N-((2,4-dimethylpyridin-3-yl)methyl)-1-((2-methylquinolin-6-yl)methyl)-1H-1,2,3-triazole-4-carboxamide]
5.44	COc1ccnc(C)c1CNC(=O)c1cn(Cc2ccc3nc(C)ccc3c2)nn1 [Example 2, N-((4-methoxy-2-methylpyridin-3-yl)methyl)-1-((2-methylquinolin-6-yl)methyl)-1H-1,2,3-triazole-4-carboxamide]
6.24	Cc1ccc2cc(Cn3cc(C(=O)NCc4c(C)cc(O)nc4C)nn3)ccc2n1 [Example 3, N-((6-hydroxy-2,4-dimethylpyridin-3-yl)methyl)-1-((2-methylquinolin-6-yl)methyl)-1H-1,2,3-triazole-4-carboxamide]
5.62	Cc1ccc2cc(Cn3cc(C(=O)NCc4c(C)cnc(O)c4C)nn3)ccc2n1 [Example 4, N-((2-hydroxy-3,5-dimethylpyridin-4-yl)methyl)-1-((2-methylquinolin-6-yl)methyl)-1H-1,2,3-triazole-4-carboxamide]
5.53	Cc1cnc2[nH]cc(CNC(=O)c3cn(Cc4ccc5nc(C)ccc5c4)nn3)c2c1 [Example 5, N-((5-methyl-1H-pyrrolo[2,3-b]pyridin-3-yl)methyl)-1-((2-methylquinolin-6-yl)methyl)-1H-1,2,3-triazole-4-carboxamide]
5.55	Cc1ccc2cc(Cn3cc(C(=O)NCc4c(C)ccnc4C(F)(F)F)nn3)ccc2n1 [Example 6, N-((4-methyl-2-(trifluoromethyl)pyridin-3-yl)methyl)-1-((2-methylquinolin-6-yl)methyl)-1H-1,2,3-triazole-4-carboxamide]
9.53	N=C(N)c1ccc(CNC(=O)c2cnn(Cc3ccc4ccccc4c3)c2)cc1 [Example 9, N-(4-carbamimidoylbenzyl)-1-(naphthalen-2-ylmethyl)-1H-pyrazole-4-carboxamide hydrochloride]
7.61	Cc1ccc2cc(Cn3cc(C(=O)NCc4c[nH]c5ccc(Cl)cc45)cn3)ccc2n1 [Example 12, N-((5-chloro-1H-indol-3-yl)methyl)-1-((2-methylquinolin-6-yl)methyl)-1H-pyrazole-4-carboxamide]
6.11	Cc1ccc2cc(Cn3cc(C(=O)NCc4ncc(N)nc4C)nn3)ccc2n1 [Example 13, N-((5-amino-3-methylpyrazin-2-yl)methyl)-1-((2-methylquinolin-6-yl)methyl)-1H-1,2,3-triazole-4-carboxamide]
7.38	COc1ccc(Cl)c(CNC(=O)c2cn(Cc3ccc4nc(C)ccc4c3)nn2)c1F [Example 14, N-(6-chloro-2-fluoro-3-methoxybenzyl)-1-((2-methylquinolin-6-yl)methyl)-1H-1,2,3-triazole-4-carboxamide]
7.96	Cc1ccc2cc(Cn3cc(C(=O)NCc4n[nH]c5ccc(Cl)cc45)cn3)ccc2n1 [Example 20, N-((5-chloro-1H-indazol-3-yl)methyl)-1-((2-methylquinolin-6-yl)methyl)-1H-pyrazole-4-carboxamide]
6.55	COc1ccc(Cn2cc(C(=O)NCc3n[nH]c4ccc(Cl)cc34)cn2)cc1OC [Example 24, N-((5-chloro-1H-indazol-3-yl)methyl)-1-(3,4-dimethoxybenzyl)-1H-pyrazole-4-carboxamide]
